Patent publication US11414379B2, “SPAK kinase inhibitors as neuroprotective agents” (United States Government as represented by the Department …, priority 2018, dated 2022)

Tests used:
[1] = system: Ang II-mediated hypertensive mice, pdMCAO; experiment: Neurological function tests in HTN mice after pdMCAO; assay type: in vivo, mouse; details: male HTN mice; 1-14 days post-pdMCAO
Description: Foot fault, cylinder test, and adhesive tape removal tests were used to assess pdMCAO-induced somatosensory and motor deficits in HTN mice in a blinded manner as described previously (Bhuiyan et al. (2017)J Cereb Blood Flow Metab. 37:2780-2794; Begum et al. (2018) Glia. 66).
Cylinder test: Mice are placed in a transparent cylinder (9 cm in diameter and 15 cm in height) for 10 min and all the forelimb movements of the mice will be recorded. Forepaw (left/right/both) usage on initial contact against the cylinder wall after rearing and during lateral exploration will be recorded. Prior to ischemic stroke, animals were placed in the cylinder for 5 min to establish a baseline symmetry profile.
Foot fault test: Each mouse will be placed on a stainless-steel grid floor (20 cm×40 cm with a mesh size of 4 cm^2) elevated 1 m above the floor. […] Data will be expressed as the number of foot fault errors made by the forelimbs contralateral to the injury hemisphere as a percentage of total steps.
Adhesive contact and removal tests: A piece of adhesive tape (4 mm×3 mm) will be attached to the contralateral forepaw with equal pressure by the experimenter in each trial. The time to make first contact with the tape and the time to remove the tape will be recorded as the contact time and the removal time, respectively. […]

pKCC3 = experiment: Phosphorylation in ischemic mouse brains, immunoblot; assay type: in vivo
Description: The membranes were incubated for 30 min with TBST (Tris-buffered saline, 0.05% Tween-20) containing 5% (w/v) skim milk. The blots were then washed six times with TBST and incubated for 1 hour at room temperature with secondary HRP-conjugated antibodies diluted 5000-fold in 5% (w/v) skim milk in TBST. After repeating the washing steps, signals were detected with enhanced chemiluminescence reagent. Immunoblots were developed using a film automatic processor (SRX-101; Konica Minolta Medical) and films were scanned at 600 dpi (PowerLook 1000; UMAX). Figures were generated using Photoshop/Illustrator (Adobe). The densities of bands were measured with ImageJ. For phospho-antibody immunoprecipitation, KCC isoforms were immunoprecipitated from indicated cell extracts. 2 mg of the indicated clarified cell extract were mixed with 15 μg of the indicated phospho-specific KCC antibody conjugated to 15 μl of protein-G-Sepharose, in the added presence of […] of the dephosphorylated form of the phosphopeptide antigen, and incubated 2 hours at 4° C. with gentle shaking. Immunoprecipitates were washed three times with 1 mL of lysis buffer containing 0.15 M NaCl and twice with 1 ml of buffer A. Bound proteins were eluted with 1×LDS sample buffer.
Brain homogenates were prepared as previously described (Bhuiyan et al. (2017) Journal of cerebral blood flow and metabolism: official journal of the International Society of Cerebral Blood Flow and Metabolism 37: 2780-2794). Mice were anesthetized with 5% isoflurane vaporized in N20 and 02 (3:2), then decapitated. […] The pellet was re-suspended in the homogenization buffer. Protein content in both membrane and cytosolic fractions was determined by the standard bicinchoninic acid method.
Referring to FIG. 14A, representative immunoblots (IB) of phospho-SPAK/OSR1 (pSPAK/pOSR1), phospho-KCC3 and phospho-NKCC1 (pNKCC1) in mouse brains studied 24 hrs post-reperfusion after ischemic stroke are shown. Membrane protein fractions were prepared from contralateral (CL) and ipsilateral (IL) cerebral hemispheres. Vehicle (Veh, DMSO) or ZT-1a (5 mg/kg) was administered as described in FIG. 11A, FIG. 11B, and FIG. 13. Na^+-K^+ ATPase α-subunit and GAPDH served, respectively, as loading controls for membrane and cytosol fractions.
Referring to FIG. 14B, densitometry analyses of immunoblots (similar to those in panel A) of pSPAK/pOSR1, pNKCC1, tSPAK/tOSR1, and tNKCC1 in mouse brains studied 24 hrs reperfusion after tMCAO are shown. Data are means±SEM, n=5 per group (male 3, female 2). *p<0.05.

[2] = system: mouse model of ischemic stroke; experiment: Neurological function tests after tMCAO; assay type: in vivo; details: 5.0 mg/kg
Description: The scores were: 0, no observable deficit; 1, forelimb flexion; 2, forelimb flexion and decreased resistance to lateral push; 3, forelimb flexion, decreased resistance to lateral push, and unilateral circling; 4, forelimb flexion and partial or complete lack of ambulation.
In brief, the corner test apparatus consists of two cardboards (30×20×1 cm each) placed together at a 30° angle to form a narrow alley. The mouse was placed between the two angled boards facing the corner. When exiting the corner, uninjured mice turned left or right randomly. […] The numbers of left and right turns of each mouse during 10 trials were recorded, and turning movements that were not part of a rearing movement were not scored. Preoperative training was carried twice per day for three days prior to operation. Postoperatively, animals were tested on day 1, 3, 5, and 7.
In brief, two small pieces of adhesive tape (4 mm×3 mm) were attached to the forepaws in an alternating sequence and with equal pressure by the experimenter before each trial. Animals were released into a testing cage, and the time of contact and removal of the adhesive patch were recorded. Contact was recorded when either shaking of the paw or mouth contact occurred. The trial ended after the adhesive patch was removed or after 2 min had elapsed. Preoperative training was carried twice per day for three days prior to operation. Postoperatively, animals were tested on day 1, 3, 5, and 7.
Referring to FIG. 13, neurological deficit scores, corner tests, and adhesive tape contact and adhesive tape removal tests of mice treated with vehicle or ZT-1a 1 day before tMCAO (˜1) and at days 0, 1, 3, 5, and 7 post-tMCAO are shown. Vehicle (DMSO, 2 ml/kg) or ZT-1a (5.0 mg/kg) were administered as described in B. Data are means±SEM, n=6 for each group (male 3, female 3). * p<0.05 vs. vehicle.

[3] = ZT-1a content in brain and plasma, sham vs tMCAO mice, LC-MS/MS; assay type: in vivo, mouse; details: 2 hrs post-injection
Description: ZT-1a content in brain homogenates and plasma was assayed at the University of Pittsburgh Small Molecule Biomarker Core, using liquid chromatography-tandem mass spectrometry (LC-MS/MS). C57BL/6j mice (normotensive male, 11 weeks old) at 3 hr post Sham surgery or tMCAO were intraperitoneally injected with 5 mg/kg ZT-1a. At 2 hr post injection, blood was collected into heparin-treated EP tubes by a cardiac puncture. After a brief cardiac perfusion with ice-cold normal saline, brain tissues (contralateral and ipsilateral hemispheres) were collected. Plasma samples were prepared by centrifugation of whole blood for 10 min at 1,500 g using a refrigerated centrifuge. Brain tissues and plasma samples were diluted, and protein was precipitated with acetonitrile prior to detection of ZT-1a with a triple quad mass spectrometer. Glyburide was used as the internal standard. Samples were then injected by autosampler and ZT-1a was eluted from a Waters Acquity UPLC BEH C18, 1.7 um, 2.1×100 mm reversed-phase column with a water (with 0.1% formic acid) and acetonitrile (with 0.1% formic acid) gradient.

Cc1cc(C(C#N)c2ccc(Cl)cc2)c(Cl)cc1NC(=O)c1cc(Cl)ccc1O (centres unmarked) [ZT-1a, 5-chloro-N-(5-chloro-4-((4-chlorophenyl)(cyano)methyl)-2-methylphenyl)-2-hydroxy-benzamide]
foot fault, cylinder and adhesive tape removal tests [1]: less foot faults, less unilateral turns and better performance in adhesive tape removal
reduction of ischemia-induced elevations of pKCC3 (pKCC3; compared to vehicle-control mice): 30%
effect on ischemia-induced increases of pKCC3 (pKCC3; ipsilateral cortex membrane fractions, 24 hrs reperfusion, 5 mg/kg): prevented ischemia-induced increases
corner test ([2]; days 1-7 post-stroke): reduced unidirectional turn preference and absence of asymmetries by day 7 post-stroke
adhesive removal test ([2]; vs vehicle, p<0.05): significantly improved motor function
adhesive contact test ([2]; vs vehicle, p=0.10): trend to faster contact response
brain concentrations, stroke mice vs sham-controls ([3]; 5 mg/kg i.p. at 3 hrs after tMCAO, n=10-11): ~1.8 fold
plasma bioavailability, sham control vs ischemic stroke mice ([3]; 5 mg/kg i.p., p=0.29): no significant difference
